US6693108B2, “Inhibitors of c-JUN N terminal kinases (JNK) and other protein kinases” (Vertex Pharmaceuticals Incorporated, priority 1999, dated 2004)

Target: T1, activated JNK3 (Homo sapiens, UniProt P53779)
T1 construct: One such construct encodes amino acid residues Ser40-Glu402 of JNK3α1 and is preceded by Met and Gly residues; Met-Gly (initiation Met plus Gly added to create the NcoI site) (N); made in house; host or cells: E. coli BL21 (DE3)
Assay: JNK3 inhibition, spectrophotometric coupled-enzyme assay
Type: biochemical
Settings: read-out: Activity in the JNK3 Inhibition Assay (Ki rating)
Source text: A BLAST search of the EST database using the published JNK3α1 cDNA as a query identified an EST clone (#632588) that contained the entire coding sequence for human JNK3α1. Polymerase chain reactions (PCR) using pfu polymerase (Strategene) were used to introduce restriction sites into the cDNA for cloning into the pET-15B expression vector at the NcoI and BamHI sites. The protein was expressed in E. coli. […] This truncation corresponds to Ser 2 of JNK1 and JNK2 proteins, and is preceded by a methionine (initiation) and a glycine residue. The glycine residue was added in order to introduce an NcoI site for cloning into the expression vector. In addition, systematic C-terminal truncations were performed by PCR to identify a construct that give rise to diffraction-quality crystals.
5 mg of JNK3 was diluted to 0.5 mg/ml in 50 mM HEPES buffer, pH 7.5, containing 100 mM NaCl, 5 mM DTT, 20 mM MgCl2 and 1 mM ATP. GST-MKK7(DD) was added at a molar ratio of 1:2.5 GST-MKK7:JNK3. After incubation for 30 minutes at 25° C., the reaction mixture was concentrated 5-fold by ultrafiltration in a Centriprep-30 (Amicon, Beverly, Mass.), diluted to 10 ml and an additional 1 mM ATP added. This procedure was repeated three times to remove ADP and replenish ATP. The final addition of ATP was 5 mM and the mixture incubated overnight at 4° C.
The activated JNK3/GST-MKK7(DD) reaction mixture was exchanged into 50 mM HEPES buffer, pH 7.5, containing 5 mM DTT and 5% glycerol (w/v) by dialysis or ultrafiltration. The reaction mixture was adjusted to 1.1 M potassium phosphate, pH 7.5, and purified by hydrophobic interaction chromatography (at 25° C.) using a Rainin Hydropore column. […] Activated JNK3 (i.e. doubly phosphorylated JNK3) was stored at −70° C. at 0.25-1 mg/ml.
Compounds were assayed for the inhibition of JNK3 by a spectrophotometric coupled-enzyme assay. In this assay, a fixed concentration of activated JNK3 (10 nM) was incubated with various concentrations of a potential inhibitor dissolved in DMSO for 10 minutes at 30° C. in a buffer containing 0.1 M HEPES buffer, pH 7.5, containing 10 mM MgCl2, 2.5 mM phosphoenolpyruvate, 200 μM NADH, 150 μg/mL pyruvate kinase, 50 μg/mL lactate dehydrogenase, and 200 μM EGF receptor peptide. […] The reaction was initiated by the addition of 10 μM ATP and the assay plate is inserted into the spectrophotometer's assay plate compartment that was maintained at 30° C. The decrease of absorbance at 340 nm was monitored as a function of time. The rate data as a function of inhibitor concentration was fitted to competitive inhibition kinetic model to determine the Ki.

T1 sequence (P53779 40-402): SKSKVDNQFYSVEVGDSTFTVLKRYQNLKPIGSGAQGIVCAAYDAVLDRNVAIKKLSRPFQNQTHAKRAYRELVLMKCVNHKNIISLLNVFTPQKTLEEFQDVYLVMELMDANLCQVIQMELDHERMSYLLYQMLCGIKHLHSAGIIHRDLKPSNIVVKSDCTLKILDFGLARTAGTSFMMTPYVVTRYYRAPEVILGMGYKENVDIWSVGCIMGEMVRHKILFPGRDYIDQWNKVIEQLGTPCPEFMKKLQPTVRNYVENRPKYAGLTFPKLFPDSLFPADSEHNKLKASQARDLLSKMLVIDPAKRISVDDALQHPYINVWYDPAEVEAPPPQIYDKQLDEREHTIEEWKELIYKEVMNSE

SMILES	Ki
Cc1ccnc(Nc2nccc(-c3c(-c4ccccc4)noc3C)n2)c1 [IIAA-12]	< 100 nM
Cc1onc(-c2ccccc2)c1-c1ccnc(Nc2cccc3ccccc23)n1 [IIAA-13]	< 100 nM
COc1ccc2cc(Nc3nccc(-c4c(-c5c(F)cccc5F)noc4C)n3)ccc2c1 [IIAA-14]	< 100 nM
Cc1ccc2ccccc2c1Nc1nccc(-c2c(-c3ccccc3)noc2C)n1 [IIAA-15]	100 to 1000 nM
COC(=O)c1ccc2cc(Nc3nccc(-c4c(-c5ccccc5)noc4C)n3)ccc2c1 [IIAA-16]	< 100 nM
COc1ccc2ccccc2c1Nc1nccc(-c2c(-c3ccccc3)noc2C)n1 [IIAA-17]	> 1000 nM
COCc1ccc2ccccc2c1Nc1nccc(-c2c(-c3ccccc3)noc2C)n1 [IIAA-18]	100 to 1000 nM
COc1ccc2cc(Nc3nccc(-c4c(-c5ccccc5C)noc4C)n3)ccc2c1 [IIAA-19]	< 100 nM
Cc1ccc2cc(Nc3nccc(-c4c(-c5ccccc5C)noc4C)n3)ccc2n1 [IIAA-20]	100 to 1000 nM
Cc1ccc2cc(Nc3nccc(-c4c(-c5cccc([N+](=O)[O-])c5)noc4C)n3)ccc2n1 [IIAA-22]	100 to 1000 nM
Cc1ccc2cc(Nc3nccc(-c4c(-c5cccc(C#N)c5)noc4C)n3)ccc2n1 [IIAA-23]	100 to 1000 nM
Cc1onc(-c2ccccc2)c1-c1ccnc(NC2CCCCC2)n1 [IIAA-24]	< 100 nM
Cc1onc(-c2ccccc2)c1-c1ccnc(NC2Cc3ccccc3C2)n1 [IIAA-25]	< 100 nM
Cc1onc(-c2ccccc2)c1-c1ccnc(NC2CCN(Cc3ccccc3)CC2)n1 [IIAA-27]	100 to 1000 nM
Cc1onc(-c2ccccc2)c1-c1ccnc(NCC2CCCO2)n1 (stereo not drawn) [IIAA-29]	100 to 1000 nM
CCOC(=O)N1CCC(Nc2nccc(-c3c(-c4ccccc4)noc3C)n2)CC1 [IIAA-31]	< 100 nM
Cc1onc(-c2ccccc2)c1-c1ccnc(NC2CCNCC2)n1 [IIAA-32]	100 to 1000 nM
Cc1onc(-c2ccccc2)c1-c1ccnc(N[C@H]2CC[C@H](O)CC2)n1 [IIAA-36]	< 100 nM
Cc1onc(-c2ccccc2)c1-c1ccnc(NC2CCC(=O)CC2)n1 [IIAA-38]	< 100 nM
Cc1onc(-c2ccccc2)c1-c1ccnc(NC(=O)c2ccccc2)n1 [IIIA-1]	100 to 1000 nM
Cc1onc(-c2ccccc2)c1-c1ccnc(NC(=O)c2ccccc2Br)n1 [IIIA-2]	> 1000 nM
Cc1onc(-c2ccccc2)c1-c1ccnc(NC(=O)c2ccccc2F)n1 [IIIA-3]	100 to 1000 nM
Cc1onc(-c2ccccc2)c1-c1ccnc(NC(=O)c2ccccc2Cl)n1 [IIIA-4]	> 1000 nM

SMILES	Ki
Cc1ccccc1C(=O)Nc1nccc(-c2c(-c3ccccc3)noc2C)n1 [IIIA-5]	> 1000 nM
Cc1cccc(C(=O)Nc2nccc(-c3c(-c4ccccc4)noc3C)n2)c1 [IIIA-6]	100 to 1000 nM
COc1ccc(C(=O)Nc2nccc(-c3c(-c4ccccc4)noc3C)n2)cc1 [IIIA-7]	100 to 1000 nM
COc1ccc(C(=O)Nc2nccc(-c3c(-c4ccccc4)noc3C)n2)cc1OC [IIIA-8]	100 to 1000 nM
COc1ccc(C(=O)Nc2nccc(-c3c(-c4ccccc4)noc3C)n2)c(OC)c1 [IIIA-9]	> 1000 nM
COc1cccc(OC)c1C(=O)Nc1nccc(-c2c(-c3ccccc3)noc2C)n1 [IIIA-10]	> 1000 nM
Cc1onc(-c2ccccc2)c1-c1ccnc(NC(=O)c2ccc(C#N)cc2)n1 [IIIA-11]	100 to 1000 nM
Cc1onc(-c2ccccc2)c1-c1ccnc(NC(=O)c2ccc(F)cc2)n1 [IIIA-14]	100 to 1000 nM
Cc1onc(-c2ccccc2)c1-c1ccnc(NC(=O)c2cccs2)n1 [IIIA-15]	< 100 nM
COc1cc(C(=O)Nc2nccc(-c3c(-c4ccccc4C)noc3C)n2)cc(OC)c1OC [IIIA-18]	100 to 1000 nM
COc1cccc(C(=O)Nc2nccc(-c3c(-c4ccccc4C)noc3C)n2)c1 [IIIA-19]	100 to 1000 nM
COc1ccc(C(=O)Nc2nccc(-c3c(-c4ccccc4C)noc3C)n2)cc1 [IIIA-20]	100 to 1000 nM
COc1cc(OC)cc(C(=O)Nc2nccc(-c3c(-c4ccccc4C)noc3C)n2)c1 [IIIA-21]	100 to 1000 nM
COc1cc(C(=O)Nc2nccc(-c3c(-c4ccccc4C(F)(F)F)noc3C)n2)cc(OC)c1OC [IIIA-22]	> 1000 nM
COc1cccc(C(=O)Nc2nccc(-c3c(-c4ccccc4C(F)(F)F)noc3C)n2)c1 [IIIA-23]	> 1000 nM
COc1ccc(C(=O)Nc2nccc(-c3c(-c4ccccc4C(F)(F)F)noc3C)n2)cc1 [IIIA-24]	> 1000 nM
COc1cc(OC)cc(C(=O)Nc2nccc(-c3c(-c4ccccc4C(F)(F)F)noc3C)n2)c1 [IIIA-25]	> 1000 nM
COc1cc(C(=O)Nc2nccc(-c3c(-c4cccc(OCc5ccccc5)c4)noc3C)n2)cc(OC)c1OC [IIIA-30]	100 to 1000 nM
COc1cccc(C(=O)Nc2nccc(-c3c(-c4cccc(OCc5ccccc5)c4)noc3C)n2)c1 [IIIA-31]	100 to 1000 nM
COc1ccc(C(=O)Nc2nccc(-c3c(-c4cccc(OCc5ccccc5)c4)noc3C)n2)cc1 [IIIA-32]	100 to 1000 nM
COc1cc(OC)cc(C(=O)Nc2nccc(-c3c(-c4cccc(OCc5ccccc5)c4)noc3C)n2)c1 [IIIA-33]	100 to 1000 nM
COc1cc(C(=O)Nc2nccc(-c3c(-c4cccc([N+](=O)[O-])c4)noc3C)n2)cc(OC)c1OC [IIIA-34]	> 1000 nM
COc1cccc(C(=O)Nc2nccc(-c3c(-c4cccc([N+](=O)[O-])c4)noc3C)n2)c1 [IIIA-35]	> 1000 nM

SMILES	Ki
COc1ccc(C(=O)Nc2nccc(-c3c(-c4cccc([N+](=O)[O-])c4)noc3C)n2)cc1 [IIIA-36]	> 1000 nM
COc1cc(OC)cc(C(=O)Nc2nccc(-c3c(-c4cccc([N+](=O)[O-])c4)noc3C)n2)c1 [IIIA-37]	> 1000 nM
COc1cc(C(=O)Nc2nccc(-c3c(-c4cccc(C#N)c4)noc3C)n2)cc(OC)c1OC [IIIA-38]	> 1000 nM
COc1cccc(C(=O)Nc2nccc(-c3c(-c4cccc(C#N)c4)noc3C)n2)c1 [IIIA-39]	> 1000 nM
COc1ccc(C(=O)Nc2nccc(-c3c(-c4cccc(C#N)c4)noc3C)n2)cc1 [IIIA-40]	> 1000 nM
COc1cc(OC)cc(C(=O)Nc2nccc(-c3c(-c4cccc(C#N)c4)noc3C)n2)c1 [IIIA-41]	> 1000 nM
COc1cc(OC)cc(C(=O)Nc2nccc(-c3c(-c4ccccc4)noc3C)n2)c1 [IIIA-42]	100 to 1000 nM
Cc1onc(-c2ccccc2)c1-c1ccnc(NC(=O)c2cccc(C#N)c2)n1 [IIIA-43]	< 100 nM
COC(=O)c1ccc(C(=O)Nc2nccc(-c3c(-c4ccccc4)noc3C)n2)cc1 [IIIA-44]	100 to 1000 nM
Cc1onc(-c2cccc(F)c2)c1-c1ccnc(NC(=O)c2cccc(Cl)c2)n1 [IIIA-45]	100 to 1000 nM
COc1cccc(C(=O)Nc2nccc(-c3c(-c4cccc(F)c4)noc3C)n2)c1 [IIIA-46]	100 to 1000 nM
COc1cc(OC)cc(C(=O)Nc2nccc(-c3c(-c4cccc(F)c4)noc3C)n2)c1 [IIIA-47]	100 to 1000 nM
Cc1cccc(C(=O)Nc2nccc(-c3c(-c4cccc(F)c4)noc3C)n2)c1 [IIIA-48]	100 to 1000 nM
Cc1onc(-c2cccc(F)c2)c1-c1ccnc(NC(=O)c2ccc(F)cc2)n1 [IIIA-49]	100 to 1000 nM
Cc1ccc(C(=O)Nc2nccc(-c3c(-c4cccc(F)c4)noc3C)n2)cc1 [IIIA-50]	100 to 1000 nM
Cc1onc(-c2cccc(F)c2)c1-c1ccnc(NC(=O)c2cccc(C#N)c2)n1 [IIIA-51]	100 to 1000 nM
COc1cc(C(=O)Nc2nccc(-c3c(-c4cccc(F)c4)noc3C)n2)cc(OC)c1OC [IIIA-52]	100 to 1000 nM
Cc1onc(-c2cccc(F)c2)c1-c1ccnc(NC(=O)c2ccc3ccccc3c2)n1 [IIIA-53]	100 to 1000 nM
Cc1onc(-c2ccccc2F)c1-c1ccnc(NC(=O)c2cccc(Cl)c2)n1 [IIIA-54]	100 to 1000 nM
COc1cccc(C(=O)Nc2nccc(-c3c(-c4ccccc4F)noc3C)n2)c1 [IIIA-55]	100 to 1000 nM
COc1cc(OC)cc(C(=O)Nc2nccc(-c3c(-c4ccccc4F)noc3C)n2)c1 [IIIA-56]	100 to 1000 nM
Cc1cccc(C(=O)Nc2nccc(-c3c(-c4ccccc4F)noc3C)n2)c1 [IIIA-57]	100 to 1000 nM
COc1ccc(C(=O)Nc2nccc(-c3c(-c4ccccc4F)noc3C)n2)cc1 [IIIA-58]	100 to 1000 nM
